According to PubChem BioAssay (NCI):
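Values below derive from 48-hour exposures of cells grown in 96-well plates, with endpoints linearly interpolated between the two concentrations bracketing the appropriate inhibition level. TGI denotes the concentration required for complete inhibition of growth.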

What was measured:
Assay in all cases: NCI tumour cell line growth inhibition, 48 h
[1] = test system: SF-295 CNS
[2] = test system: NCI/ADR-RES ovarian
[3] = test system: SK-MEL-2 melanoma
[4] = test system: NCI-H23 lung
[5] = test system: SN12C renal
[6] = test system: RPMI-8226 leukemia
[7] = test system: HCT-116 colon
[8] = test system: 786-0 renal
[9] = test system: T-47D breast
[10] = test system: OVCAR-8 ovarian

| SMILES | TGI [1] | TGI [2] | TGI [3] | TGI [4] | TGI [5] | TGI [6] | TGI [7] | TGI [8] | TGI [9] | TGI [10] |
| --- | --- | --- | --- | --- | --- | --- | --- | --- | --- | --- |
| COC(OC)[C@@H]1OC[C@H](n2cnc3c(N)ncnc32)[C@H]1O | > 100 µM | > 100 µM | > 100 µM | > 100 µM | > 100 µM | > 100 µM | > 100 µM | > 100 µM | > 100 µM |  |
| C=C(C(N)=O)c1ccc([N+](=O)[O-])o1 | > 100 µM | > 100 µM | 22.5 µM | 20.6 µM | 22.4 µM |  | 14.7 µM | 24.1 µM | 48 µM | 10.6 µM |
| COC(=O)C1CCC(=S)N1C(=O)c1ccccc1 (stereo not given) | > 100 µM | > 100 µM | > 100 µM | > 100 µM |  | > 100 µM | > 100 µM | > 100 µM | > 100 µM | > 100 µM |
| CC(=O)Oc1cc2c(cc1OC(C)=O)OCC(c1ccc(C)cc1)C2 (stereo not given) | 76.3 µM | 58.3 µM | 34.1 µM | 32.1 µM | 33.2 µM | 63.1 µM | 41.5 µM |  |  | 68.6 µM |
| COC(C(=O)NN)c1ccccc1 (stereo not given) | > 100 µM | > 100 µM | > 100 µM | > 100 µM | > 100 µM | > 100 µM |  | > 100 µM |  | > 100 µM |
| C=C/C(C)=C\CC1[C@](C)(O)CC[C@H]2C(C)(C)C(=O)CC[C@]12C (stereo not given in full) | > 100 µM | > 100 µM | > 100 µM | > 100 µM | > 100 µM | > 100 µM | > 100 µM | > 100 µM |  | > 100 µM |
| CN(C)C(=O)OC1C(=O)N(C)c2ccc(Cl)cc2C2(c3ccccc3)N1C2(Cl)Cl (stereo not given) | > 100 µM |  | > 100 µM | > 100 µM | > 100 µM | > 100 µM | > 100 µM |  |  | > 100 µM |
| CC(=O)N1CC(C)(C)c2c(C)c(O)c(C)c(C)c21 | > 100 µM | > 100 µM |  | > 100 µM | > 100 µM | > 100 µM | > 100 µM | > 100 µM | > 100 µM | > 100 µM |
| NC(=O)c1cccc([N+](=O)[O-])c1 | > 100 µM |  | > 100 µM | > 100 µM | > 100 µM | > 100 µM |  | > 100 µM |  | > 100 µM |
| CC1(C)N/C(=C\C=O)C(C)(C)N1O | > 100 µM | > 100 µM | > 100 µM | > 100 µM | > 100 µM | > 100 µM | > 100 µM |  |  | > 100 µM |
| CCCCC(=O)c1c(O)nc2sccn2c1=O | > 10 µM | > 10 µM | > 10 µM | > 10 µM | > 10 µM | > 10 µM | > 10 µM |  | > 10 µM | > 10 µM |
| CO/N=C1\CC(NC(=O)CNC(=O)OC(C)(C)C)c2ccsc21 (stereo not given) | > 100 µM | > 100 µM | > 100 µM | > 100 µM | > 100 µM |  | > 100 µM |  | > 100 µM | > 100 µM |
